The values below come from patent publication US20240368133A1, “Compounds for the Treatment of Pain, in Particular, Neuropathic Pain, and/or Other Diseases or Disorders that are Associated with AT2R and/or AT2R Mediated Signaling” (Confo Therapeutics N.V., priority 2021, published 2024).

Series [1] deals with human AT2R fused to Cb23 (Homo sapiens, UniProt P50052). Description: Radioligand binding assay, displacement of 125I-[Sar1, Ile8]-Angiotensin II, hAT2R Cb23. The conditions noted are these: displacement of 125I-[Sar1, Ile8]-Angiotensin II, human AT2R fused to Cb23, HEK-293 cell membrane preparations; read-out: Binding affinity on hAT2R_Cb23 IC50. In a few lines:
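Membranes from HEK-293 cells expressing human AT2R fused to Cb23 were incubated with 0.05 nM 125I-[Sar1, Ile8]-Angiotensin II in 100 μL buffer (50 mM Tris, 5 mM MgCl2, 1 mM EDTA, 0.1% BSA, pH 7.4) for one hour at 25° C. Ligands were tested as eight-point dose-response curves in duplicate, with C21 and Angiotensin II as references.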

Series [2] addresses human AT1R (Homo sapiens (Human), UniProt P30556). The series is described as follows: Counterscreen radioligand binding assay, displacement of 125I-[Sar1, Ile8]-Angiotensin II, hAT1R WT. As to conditions: for inhibition at 1 µM / inhibition at 10 µM: 125I-[Sar1, Ile8]-Ang II, semi-quantitative score; for inhibition at 1 µM: compound at 1 μM, read-out: % Displaced radioligand at 1 μM; for inhibition at 10 µM: compound at 10 μM, read-out: % Displaced radioligand at 10 μM; for IC50: HEK-293 cell membranes, read-out: Binding affinity On hAT1R IC50. The method, boiled down:
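Compounds displaced 0.05 nM 125I-[Sar1, Ile8]-Ang II from human AT1R in HEK-293 membranes (1 h, 25° C; Tris/MgCl2/EDTA/BSA buffer, pH 7.4). Readout was filtration and scintillation counting, with non-specific binding set by 10 μM [Sar1]-Ang II. Values are % displacement at 1 μM and […], or IC50 from eight-point four-parameter fits.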

Series [3] is described as follows: Liver microsomal stability, mouse. The series is classed as in vitro ADME. As to conditions: male, pH 7.4, liver microsomes. On the procedure:
(§1) Mouse hepatic microsomes were isolated from pooled (50), perfused livers of male Balb/c mice. Rat hepatic microsomes were isolated from pooled (15), perfused livers of male Wistar rats. Isolation was performed according to the standard protocol (Hill, J. R. in Current Protocols in Pharmacology 7.8.1-7.8.11, Wiley Interscience, 2003). The batches of microsomes were tested for quality control using Imipramine, Propranolol and Verapamil as reference compounds.
(§2) Microsomal incubations were carried out in 96-well plates in 5 aliquots of 40 μL each (one for each time point). Liver microsomal incubation medium contained PBS (100 mM, pH 7.4), MgCl2 (3.3 mM), NADPH (3 mM), glucose-6-phosphate (5.3 mM), glucose-6-phosphate dehydrogenase (0.67 units/ml) with 0.42 mg of liver microsomal protein per ml. Control incubations were performed replacing the NADPH-cofactor system with PBS. Test compound (2 μM, final solvent concentration 1.6%) was incubated with microsomes at 37° C., shaking at 100 rpm. Incubations were performed in duplicates. Five time points over 40 minutes have been analyzed. The reactions were stopped by adding 12 volumes of 90% acetonitrile-water to incubation aliquots, followed by protein sedimentation by centrifuging at 5500 rpm for 3 minutes. […]. Supernatants were analyzed using the HPLC system coupled with tandem mass spectrometer (API3000 PE Sciex). Acquisition and analysis of the data were performed using Analyst 1.5.2 software (PE Sciex). The elimination constant (kel), half-life (t½) and intrinsic clearance (Clint) were determined in plot of […] versus time, using linear regression analysis:
(§3) Mouse hepatic microsomes were isolated from pooled, perfused livers of male CD1 mice. Rat hepatic microsomes were isolated from pooled, perfused livers of male Sprague Dawley rats. Dog hepatic microsomes were isolated from pooled, perfused livers of male Beagle dogs. The batches of microsomes were tested for quality control using Testosterone, Propranolol and Caffeine as reference compounds.
(§4) A 10 mM stock solution of compound in DMSO is diluted three-fold in DMSO. This pre-diluted compound solution is then further diluted to 2 μM in a 50 mM phosphate buffer (PBS, pH 7.4) and pre-warmed at 37° C. This compound dilution is mixed F2 with microsomal/cofactor mix at 37° C. under shaking at 300 rpm. Final reaction conditions are: 100 μL incubation volume, 1 μM of test compound (in duplicate), <0.1% DMSO, 0.5 mg/mL microsomes, 0.6 U/mL Glucose-6-phosphate-dehydrogenase (G6PDH, Roche, 10127671001), 3.3 mM MgCl2 (Sigma, M2670), 3.3 mM glucose-6-phosphate (Sigma, G-7879) and 1.3 mM NADP+ (Sigma, N-0505).
(§5) After 60 min of incubation at 300 rpm and 37° C., the reaction was stopped with 3 volumes of STOP solution (acetonitrile/MeOH 2/1 with diclofenac as internal standard). For the time point zero, 3 volumes of STOP solution were added to the compound dilution before the microsome mix was added. Six time points over 60 minutes have been analyzed. The samples of all time points were centrifuged, filtered and the supernatant analyzed by LCMS/MS (systems API4000).
(§6) The instrument responses (peak areas/IS peak area) were referenced to the zero time-point samples (considered as 100%) in order to determine the percentage of compound remaining.
(§7) Testosterone (1 μM) and Propranolol and Caffeine (1 μM) were used as reference compounds, being unstable and stable compounds respectively. If the microsomal stability values for these controls are not in the range determined by the historical data, the assay is not validated. The solubility of the compound in the final test concentration in 50 mM buffer pH 7.4 is checked by microscope to indicate whether precipitation is observed or not. If a precipitate is observed, no data of microsomal stability is generated.

Series [4] is described as follows: Liver microsomal stability, rat. The conditions noted are these: male, pH 7.4, liver microsomes. It is filed as in vitro ADME. How it is done:
as §1, §2, §3, §4, §5, §6, §7

Series [5] is described as follows: Liver microsomal stability, human. The conditions noted are these: pH 7.4, liver microsomes. The series is classed as in vitro ADME. How it is done: as §2, §4, §5, §6, §7
Series [6] concerns the target CYP2D6 (Homo sapiens (Human), UniProt P10635). The series is described as follows: CYP inhibition, CYP2D6. The series is classed as in vitro ADME. The conditions noted are these: CYP 2D6, ref. inhibitor conc. 0.5 μM. On the procedure: The aim of this assay is to determine the inhibitory potential of a test compound. A major concern for drug-drug-interaction is cytochrome P450 inhibition. Reversible CYP inhibition was determined in human liver microsomes using specific probe substrates for human cytochrome P450 isoenzymes CYP1A2, 2C9, 2C19, 2D6 and 3A4. […]
A 10 mM stock solution of test compound is prepared in methanol. This stock is further serially diluted 1:3 in methanol and then added to mixture containing 50 mM potassium phosphate buffer pH7.4, human liver microsomes (BD Gentest) and probe substrate. After pre-warming 5 min at 37° C., the reaction is started by adding co-factor mix ([…] glucose-6-phosphate, 1.7 mg/mL NADP, 6 U/mL of glucose-6-phosphate dehydrogenase), resulting in a final concentration of test compound at 10 μM (2% MeOH).
Final concentrations of co-factor mix components are as follows: 1.56 mg/mL glucose-6-phosphate, 0.34 mg/mL NADP, 1.2 U/mL of glucose-6-phosphate dehydrogenase.
After incubation at 37° C., the reaction (aliquot of 50 μL) is terminated with 150 μL CH3CN:MeOH (2:1) solution with internal standard (warfarin for 2C9, diclofenac for all other tested isoforms). Samples are centrifuged and the supernatant fractions analyzed by LC-MS/MS.
The instrument responses (ratio of test compound and internal standard peak areas) are referenced to those for solvent controls (assumed as 100%) in order to determine the percentage reduction in probe metabolism. Percent of control activity vs. concentration plots are generated and fitted using GraphPad Prism software to generate IC50.

A value given as a limit tells only on which side of the number the result lay.

Chain of human AT1R (P30556 whole entry): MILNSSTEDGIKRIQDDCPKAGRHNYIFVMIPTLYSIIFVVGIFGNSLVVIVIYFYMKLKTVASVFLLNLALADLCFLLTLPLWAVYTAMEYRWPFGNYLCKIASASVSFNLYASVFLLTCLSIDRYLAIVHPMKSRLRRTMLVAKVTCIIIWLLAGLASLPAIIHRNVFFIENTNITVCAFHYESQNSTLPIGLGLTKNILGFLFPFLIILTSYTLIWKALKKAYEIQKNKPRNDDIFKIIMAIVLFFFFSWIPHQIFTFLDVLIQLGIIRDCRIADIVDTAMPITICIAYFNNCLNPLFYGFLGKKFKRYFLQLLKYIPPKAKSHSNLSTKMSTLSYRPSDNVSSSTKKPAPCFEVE
Chain of human AT2R fused to Cb23 (P50052 whole entry, looked up, the tested form may be a part): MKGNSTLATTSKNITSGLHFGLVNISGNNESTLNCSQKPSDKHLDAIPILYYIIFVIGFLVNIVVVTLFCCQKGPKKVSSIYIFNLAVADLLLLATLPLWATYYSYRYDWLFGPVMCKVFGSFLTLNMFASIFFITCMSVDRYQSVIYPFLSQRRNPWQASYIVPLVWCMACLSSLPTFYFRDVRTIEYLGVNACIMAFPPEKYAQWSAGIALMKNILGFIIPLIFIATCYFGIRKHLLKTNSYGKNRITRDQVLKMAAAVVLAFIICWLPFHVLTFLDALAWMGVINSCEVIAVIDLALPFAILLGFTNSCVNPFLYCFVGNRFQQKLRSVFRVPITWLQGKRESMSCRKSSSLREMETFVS
Chain of CYP2D6 (P10635 whole entry): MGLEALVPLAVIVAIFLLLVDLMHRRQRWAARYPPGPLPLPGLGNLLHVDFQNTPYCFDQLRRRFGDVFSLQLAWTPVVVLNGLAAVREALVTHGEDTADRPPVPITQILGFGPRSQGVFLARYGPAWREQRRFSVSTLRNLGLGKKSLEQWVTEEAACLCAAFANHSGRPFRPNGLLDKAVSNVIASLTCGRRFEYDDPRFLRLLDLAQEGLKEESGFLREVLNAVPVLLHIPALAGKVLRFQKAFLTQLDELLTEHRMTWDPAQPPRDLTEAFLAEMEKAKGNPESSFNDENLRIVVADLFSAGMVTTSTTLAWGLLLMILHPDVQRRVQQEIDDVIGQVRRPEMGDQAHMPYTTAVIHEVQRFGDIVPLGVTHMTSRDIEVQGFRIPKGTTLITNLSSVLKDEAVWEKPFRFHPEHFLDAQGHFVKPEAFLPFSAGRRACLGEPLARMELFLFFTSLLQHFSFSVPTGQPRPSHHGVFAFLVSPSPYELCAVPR

Consider `CC(C)Cc1ccc(-c2nn[nH]n2)c(N2CCN(Cc3nc4ccccc4s3)CC2)c1` [Compound A-48, 2-[[4-[5-isobutyl-2-(2H-tetrazol-5-yl)-phenyl]piperazin-1-yl]methyl]-1,3-benzothiazole], for which the IC50 came out at 628 nM in series [1] and 27800 nM in series [2]. Further, the inhibition at 1 µM in series [2] is < 30%. Moreover, the inhibition at 10 µM in series [2] lay within 30 to 50%. In addition, the figures for the intrinsic clearance (microsomal CLint) in series [3], in series [4] and in series [5] were 14 µL/min/mg, 13 µL/min/mg and 32 µL/min/mg, respectively.
With `CC(C)Cc1ccc(-c2nn[nH]n2)c(C2CCN(Cc3cccnn3)CC2)c1` [Compound A-234, 3-[[4-[5-isobutyl-2-(2H-tetrazol-5-yl)-phenyl]-1-piperid-yl]methyl]pyrid-azine], the IC50 in series [1] is 2020 nM. Also, in series [2], the inhibition at 1 µM was < 30% and the inhibition at 10 µM was < 30%.
With `CC(C)Cc1ccc(-c2nn[nH]n2)c(C2CCN(Cc3cccnn3)C2)c1` (stereo not drawn) [Compound A-235, 3-[[3-[5-isobutyl-2-(2H-tetrazol-5-yl)-phenyl]pyrrolidin-1-yl]methyl]pyrid-azine], the IC50 in series [1] is 6890 nM. In addition, in series [2], the inhibition at 1 µM was < 30% and the inhibition at 10 µM is < 30%.
For `CC(C)Cc1ccc(-c2nn[nH]n2)c(N2CC(NCc3cccnn3)C2)c1` [Compound A-236, 1-(5-isobutyl-2-(2H-tetrazol-5-yl)-phenyl)-N-(pyrid-azin-3-ylmethyl)-azetidin-3-amine], the IC50 in series [1] is 1010 nM. Also, in series [2], the inhibition at 1 µM is < 30% and the inhibition at 10 µM was < 30%.
Take `CC(C)Cc1ccc(-c2nn[nH]n2)c(C(=O)N2CCN(Cc3cccnn3)CC2)c1` [Compound A-239, [5-isobutyl-2-(2H-tetrazol-5-yl)phenyl]-[4-(pyridazin-3-ylmethyl)piperazin-1-yl]methanone]: in series [1], the IC50 turned out to be 2570 nM. In addition, in series [2], the inhibition at 1 µM was < 30% and the inhibition at 10 µM is < 30%.
With `CCCN(C(=O)c1cccs1)c1ccc2nc(CC)n(CC3CCN(c4ccccc4-c4nn[nH]n4)CC3)c(=O)c2c1` [Compound A-243, N-[2-ethyl-4-oxo-3-[[1-[2-(2H-tetrazol-5-yl)phen-yl]-4-piperidyl]-methyl]quinazolin-6-yl]-N-propyl-thiophene-2-carbox-amide], the IC50 in series [1] is 159 nM. In series [2], the inhibition at 1 µM was < 30%, the inhibition at 10 µM was > 50% and the IC50 came to 11500 nM.
For the molecule `CCc1nc2ccc(N(Cc3cccnc3)C(=O)c3cccs3)cc2c(=O)n1CC1CCN(c2ccccc2-c2nn[nH]n2)CC1` [Compound A-244, N-[2-ethyl-4-oxo-3-[[1-[2-(2H-tetrazol-5-yl)phenyl]-4-piperidyl]methyl]quinazolin-6-yl]-N-(3-pyridylmethyl)thiophene-2-carboxamide], the IC50 in series [1] came to 104 nM. Moreover, in series [2], the inhibition at 1 µM was < 30%, the inhibition at 10 µM was > 50% and the IC50 came to 6620 nM.
Regarding `CCc1nc2ccc(N(Cc3ccccc3)C(=O)c3cccs3)cc2c(=O)n1CC1CCN(c2ccccc2-c2nn[nH]n2)CC1` [Compound A-246, N-benzyl-N-[2-ethyl-4-oxo-3-[[1-[2-(2H-tetrazol-5-yl)phenyl]-4-piper-idyl]methyl]quin-azolin-6-yl]thio-phene-2-carbox-amide], in series [1], the 50% inhibitory concentration (IC50) turned out to be 102 nM. In series [2], the inhibition at 1 µM was < 30%, the inhibition at 10 µM was 30 to 50% and the concentration for half-maximal inhibition (IC50) amounted to 26700 nM.
Regarding `CCc1nc2ccc(N(Cc3ccccc3Cl)C(=O)c3cccs3)cc2c(=O)n1CC1CCN(c2ccccc2-c2nn[nH]n2)CC1` [Compound A-248, N-[(2-chlorophenyl)methyl]-N-[2-ethyl-4-oxo-3-[[1-[2-(2H-tetrazol-5-yl)phenyl]-4-piperidyl]methyl]quinazolin-6-yl]thiophene-2-carboxamide], the concentration for half-maximal inhibition (IC50) in series [1] is 48 nM. Moreover, in series [2], the inhibition at 1 µM is < 30%, the inhibition at 10 µM is < 30% and the concentration for half-maximal inhibition (IC50) amounted to 40100 nM.
Molecule `C=C[C@H]1C[N@@]2CC[C@H]1C[C@@H]2[C@@H](O)c1ccnc2ccc(OC)cc12` [quinidine, reference compound] registered an inhibition at 25 min, 0.5 µM in series [6] of 87.3%.
